Assay results published in ChEMBL document CHEMBL4321809, “Structure-Reactivity Relationships on Substrates and Inhibitors of the Lysine Deacylase Sirtuin 2 from Schistosoma mansoni (SmSirt2)” (J Med Chem, 2019).

Tests used:
[1] = target: T1, NAD-dependent protein deacetylase (Schistosoma mansoni, UniProt T1VXA1); assay: Substrate activity at recombinant Schistosoma mansoni sirtuin 2 (21 to 322 residues) expressed in Escherichia coli BL21(DE3) cells assessed as ratio of Kcat to Km up to 30 mins in presence of ZMAL at saturated concentration by homogeneous fluorescence based analysis; assay type: ADME; conditions: 0.5 h
T1 sequence (T1VXA1 whole entry): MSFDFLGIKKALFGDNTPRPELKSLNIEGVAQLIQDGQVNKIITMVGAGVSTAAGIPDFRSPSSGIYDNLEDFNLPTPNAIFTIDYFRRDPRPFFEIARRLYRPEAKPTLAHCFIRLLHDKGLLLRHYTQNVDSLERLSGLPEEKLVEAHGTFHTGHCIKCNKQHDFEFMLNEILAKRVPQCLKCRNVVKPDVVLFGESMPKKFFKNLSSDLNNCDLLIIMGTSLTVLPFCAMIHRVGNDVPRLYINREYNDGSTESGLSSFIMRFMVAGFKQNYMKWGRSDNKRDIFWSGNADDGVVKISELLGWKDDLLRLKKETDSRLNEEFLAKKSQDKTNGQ

[2] = target: T1, NAD-dependent protein deacetylase; assay: Ratio of Kcat for recombinant Schistosoma mansoni sirtuin 2 (21 to 322 residues) expressed in Escherichia coli BL21(DE3) cells in presence of PSDKmyr to Kcat for recombinant Schistosoma mansoni sirtuin 2 (21 to 322 residues) expressed in Escherichia coli BL21(DE3) cells in presence of PSDKac; assay type: ADME
[3] = target: T2, NAD-dependent protein deacetylase sirtuin-2 (Homo sapiens, UniProt Q8IXJ6); assay: Inhibition of human sirutin 2 assessed as inhibition of susbtrate demyristoylation at 20 uM using (Z)-(Myr)-Lys-AMC as substrate relative to control
T2 sequence (Q8IXJ6 whole entry): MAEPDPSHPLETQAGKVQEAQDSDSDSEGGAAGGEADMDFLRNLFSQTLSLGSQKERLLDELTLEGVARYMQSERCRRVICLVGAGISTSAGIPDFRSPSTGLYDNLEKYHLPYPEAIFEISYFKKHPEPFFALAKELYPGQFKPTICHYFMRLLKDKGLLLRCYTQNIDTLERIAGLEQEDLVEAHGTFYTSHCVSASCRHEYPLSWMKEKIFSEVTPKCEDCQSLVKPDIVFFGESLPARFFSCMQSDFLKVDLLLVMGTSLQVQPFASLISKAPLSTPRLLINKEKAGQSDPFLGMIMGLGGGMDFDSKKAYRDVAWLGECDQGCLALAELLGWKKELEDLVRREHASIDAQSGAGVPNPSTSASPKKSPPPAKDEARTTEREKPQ

[4] = target: T3, NAD-dependent protein deacetylase (Schistosoma mansoni) (UniProt T1VXA1); assay: Inhibition of recombinant Schistosoma mansoni sirtuin 2 (21 to 322 residues) expressed in Escherichia coli BL21(DE3) cells assessed as inhibition of substrate demyristoylation at 20 uM using (Z)-(Myr)-Lys-AMC as substrate relative to control
T3 sequence (whole entry): T1 sequence (T1VXA1 whole entry)

[5] = target: T3, NAD-dependent protein deacetylase (Schistosoma mansoni); assay: Inhibition of recombinant Schistosoma mansoni sirtuin 2 (21 to 322 residues) expressed in Escherichia coli BL21(DE3) cells assessed as inhibition of substrate deacetylation at 20 uM using ZMAL as substrate relative to control
[6] = target: T2, NAD-dependent protein deacetylase sirtuin-2; assay: Inhibition of human sirtuin 2 assessed as inhibition of substrate deacetylation using ZMAL as substrate

| SMILES | Kcat/Km [1] [×10¹ /s/M] | Ratio [2] | inhibition at 20 µM [3] [%] | inhibition [4] [%] | inhibition [5] [%] | IC50 [6] [nM] |
| --- | --- | --- | --- | --- | --- | --- |
| NC(=O)c1ccc[n+]([C@H]2O[C@@H](COP(=O)([O-])OP(=O)(O)OC[C@H]3O[C@@H](n4cnc5c(N)ncnc54)[C@H](O)[C@@H]3O)[C@H](O)[C@@H]2O)c1 | 9.4 | 3 | – | – | – | – |
| O=C(NCc1cccnc1)c1ccc2c(c1)C1C3CCC(C3)C1C(c1ccccc1)N2 (stereo unspecified) | – | – | 42.8 | < 15 | < 15 | 2500 |
